Assay results taken from paper PMC8758724, “Molecular mechanism of agonism and inverse agonism in ghrelin receptor” (Nature Communications, 2022).
“And” between values parts separate entries of the source, which are not always exact repeats. Identical values can stand only once. “Also recorded” adds a separate entry of the source. No end group written: not given here. *: point of attachment. Octanoyl = CCCCCCCC(=O)*

Test system: ghrelin receptor mutants
Assay: NanoBiT-G-protein dissociation, ghrelin receptor mutants, HEK293T cells, Gαio-LgBiT/Gγ-SmBiT, 3–5 min
Format: cell-based, human
Conditions: for ΔpEC50 (from the WT): single replicates
Method: Bars represent differences in calculated potency (pEC50) of ghrelin for mutations relative to the WT ghrelin receptor. Data are colored according to the extent of the effect. […], **P < 0.01 and ***P < 0.001. ns no significant difference, nd not detected. All data were analyzed by one-way analysis of variance (ANOVA) followed by Dunnett’s multiple comparison test, compared with the response of WT (P = 0.002, P = 0.002, P = 0.015, P < 0.001, P < 0.001, P = 0.732, P < 0.001, P = 0.843, P = 0.012, P < 0.001, P = 0.003, P < 0.001, P < 0.001 and P < 0.001 from left to right). […] See also Supplementary Figs. 6 and 7. d Detailed interaction of the octanoyl group of Ser^+3 with the key residues from cavity II and salt bridges between E124^3.33 and R283^6.55 are clearly observed in the ghrelin-bound structure.
For cryo-EM constructs, the full-length of wild-type human ghrelin receptor was subcloned into pFastBac1 vector with an N-terminal FLAG tag and C-terminal 10×His tag. We used the NanoBiT tethering strategy, in which the C-terminus of the ghrelin receptor was directly attached to the LgBiT subunit followed by a TEV protease cleavage site and a double MBP tag. Gβ1 was fused with a C-terminal HiBiT, together with Gγ2 were cloned into pFastBac dual vector. An engineered human Gαo1 with Gαo1 H domain deletion, named miniGαo1 was cloned into pFastBac1 according to published literature. The ghrelin-induced ghrelin receptor activity was measured by NanoBiT-G-protein dissociation assay using a chimeric Gαio protein according to the previous publication except for replacement Gαqo with Gαio[54]. The Gαio were generated by replacing the six amino acids of the C-terminal of Gαi with those from GαoA1. Other constructs including the full-length and various site-directed mutagenesis human ghrelin receptors were cloned into pcDNA3.1 vector for NanoBiT-G-protein dissociation assay. Ghrelin receptor, miniGαo1, and Gβ1γ2 were co-expressed in Sf9 insect cells (Expression System) using the Bac-to-Bac baculovirus expression system (ThermoFisher). The cell pellets were collected by centrifugation 48 h post infection and stored at −80 °C until use.
G-protein activation was detected by a NanoBiT-G-protein dissociation assay. In brief, HEK293T cells were plated in each well of a six-well plate at a concentration of 0.3 million/ml (2 mL per well). Plasmid transfection was performed with a mixture of 400 ng Gαio-LgBiT, 500 ng Gγ-SmBiT, 500 ng Gβ, 600 ng ghrelin receptor by Lipofectamine 2000 (ThermoFisher Scientific) in 200 μL of Opti-MEM (Gibco). After 1 day of transfection, cells in the six-well plate were digested and resuspended in complete medium DMEM (5% FBS, 1% antibiotic) and plated in a 96-well flat-bottomed white microplate. After 24 h, the cells were washed twice with D-PBS and incubated in 40 μL of 5 μM coelenterazine 400a (Maokangbio) solution diluted 0.01% BSA and 5 mM HEPES (pH 7.5)-containing HBSS (assay buffer) for 1 h at room temperature. Baseline luminescence was measured using a luminescent microplate reader (Tecan). Ghrelin (5×, diluted in the assay buffer) was added to the cells (10 μL) and incubated for 3–5 min at room temperature before the second measurement. The ligand-induced signal ratio was normalized to the baseline luminescence and fold-change signals over vehicle treatment were used to show G-protein dissociation response.

“ghrelin: endogenous agonist, 28-amino acid peptide with octanoyl modification at the side chain of Ser+3 (GSS(Octanoyl)FLSPEHQRVQQRKESKKPPAKLQPR; UniProt Q9UBU3 24-51, looked up)” was tested, and the “ΔpEC50 (from the WT)” value (E124A) was -1.682 and -1.692 and -1.769, the “ghrelin-induced activation, effect of mutation” value (shortened to “ghrelin-induced activation”) (E124^3.33A) was “almost abolished the activity of the ghrelin receptor” and the “ghrelin-induced activation” value (E124^3.33A, listed as ghrelin peptide) was “remarkably reduced the activation potency”. The “ΔpEC50 (from the WT)” value (F38A) was -0.347 and -0.237 and -0.393, the “ghrelin-induced activation” value (F279^6.51A) was “decreased the activation potency; also recorded: almost abolished the activity of the ghrelin receptor” and the “ΔpEC50 (from the WT)” value (F286A) was -1.001 and -0.994 and -1.053. For the same substance, the “ghrelin-induced activation” value (F286^6.58A) was “decreased the receptor activation”, the “ΔpEC50 (from the WT)” value (F290A) was -0.357 and -0.309 and -0.272 and the “ΔpEC50 (from the WT)” value (F309A) was -0.421 and -0.648 and -0.344. The “ghrelin-induced activation” value (F309^7.39 mutant) was “impaired ghrelin-induced G-protein signaling”, the “ghrelin-induced activation” value (F312^7.42A) was “decreased the activation potency; also recorded: impaired ghrelin-induced G-protein signaling” and the “ΔpEC50 (from the WT)” value (I178A) was -0.256 and -0.542 and -0.472. For the same substance, the “ghrelin-induced activation” value (I178^4.60A) was “decreased the receptor activation”, the “ΔpEC50 (from the WT)” value (L181A) was -0.146 and -0.068 and -0.114 and the “ΔpEC50 (from the WT)” value (L210A) was -0.704 and -0.734 and -0.866. For the same substance, the “ghrelin-induced activation” value (L210^5.36A) was “decreased the receptor activation”, the “ΔpEC50 (from the WT)” value (M213A) was -0.105 and -0.084 and -0.1 and the “ΔpEC50 (from the WT)” value (N305A) was -0.736 and -0.893 and -0.758. The “ghrelin-induced activation” value (N305^7.35A) was “remarkably reduced the activation potency”, the “ΔpEC50 (from the WT)” value (Q302A) was -0.891 and -1.104 and -1.015 and the “ghrelin-induced activation” value (Q302^7.32 mutant) was “impaired ghrelin-induced G-protein signaling”. The “ΔpEC50 (from the WT)” value (R102A) was -0.473 and -0.141 and -0.326, the “ghrelin-induced activation” value (R283^6.55A) was “almost abolished the activity of the ghrelin receptor” and the “ghrelin-induced activation” value (R283^6.55A, listed as ghrelin peptide) was “almost abolished the efficacy”. For the same substance, the “ΔpEC50 (from the WT)” value (S123A) was -0.29 and -0.222 and -0.285, the “ΔpEC50 (from the WT)” value (V214A) was -0.199 and -0.412 and -0.206 and the “ghrelin-induced activation” value (W276^6.48A) was “decreased the activation potency; also recorded: almost abolished the activity of the ghrelin receptor”. For the same substance, the “ΔpEC50 (from the WT)” value (Y106A) was -0.423 and -0.136 and -0.417.
